Laboratory results from ChEMBL document CHEMBL1201862, “PubChem BioAssay data set” (2004).
The source made the active and inactive calls.

Legend:
Streptokinase A = biological target: T1, Streptokinase A (Streptococcus pyogenes serotype M1, UniProt P10520); assay: S. pyogenes streptokinase expression inhibitors, potency, dose response, plasminogen activation absorbance, OD405 (AID 1914); assay type: functional, Streptococcus pyogenes M1 GAS;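 further: secreted streptokinase activity via plasminogen activation per viability signal from cell pellet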
T1 sequence (P10520 whole entry): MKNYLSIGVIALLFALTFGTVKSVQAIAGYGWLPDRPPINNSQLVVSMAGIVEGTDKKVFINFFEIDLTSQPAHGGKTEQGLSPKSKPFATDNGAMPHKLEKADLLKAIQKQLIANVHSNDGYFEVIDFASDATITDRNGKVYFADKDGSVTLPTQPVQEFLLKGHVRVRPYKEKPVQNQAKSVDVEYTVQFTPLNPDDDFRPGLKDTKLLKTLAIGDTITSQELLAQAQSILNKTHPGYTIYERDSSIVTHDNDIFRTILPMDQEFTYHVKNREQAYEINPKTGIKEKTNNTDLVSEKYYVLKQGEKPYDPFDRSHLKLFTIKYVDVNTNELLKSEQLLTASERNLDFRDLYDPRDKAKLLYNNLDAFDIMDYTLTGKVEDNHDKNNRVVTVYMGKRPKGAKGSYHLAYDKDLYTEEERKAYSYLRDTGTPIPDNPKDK

[1] = tested on: Streptococcus sp. 'group A'; assay: growth inhibition of control SK(-) GAS strain, dose response, counter-screen for streptokinase expression inhibitor project, luminescence, kanamycin, BacTiterGlo, confirmation (AID 1900); assay type: functional, organism-based
[2] = biological target: T2, Endoribonuclease toxin MazF (Escherichia coli K-12, UniProt P0AE70); assay: fluorescent RNA oligo signal without MazF, dose response, counter-screen for MazEF activator project, biochemical, fluorescence, single-stranded RNase substrate (AID 588502); assay type: functional
[3] = biological target: T2, Endoribonuclease toxin MazF; assay: MazF toxin RNase activators, dose response, biochemical, fluorescence, single-stranded RNA substrate, uHTS hits (AID 588481); assay type: functional
Streptococcus = assay: Group A Streptococcus viability loss, dose response, counter-screen for streptokinase expression inhibitor project, luminescence, BacTiterGlo (AID 1915); assay type: functional, organism-based;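 further: potency for reduction of bacterial viability or growth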
[4] = Luminescence Cell-Based Dose Retest to Confirm Inhibitors of Cancer Stem Cells. [Related pubchem assays (depositor defined):AID2717, AID2721]; assay type: functional; conditions: Homo sapiens
[5] = HEp-2 cell cytotoxicity, dose response, cytotoxicity control for RSV inhibitor project, HTS (AID 2410); assay type: functional; conditions: human respiratory syncytial virus
Fatty acid synthase [6] = biological target: T3, Fatty acid synthase (Homo sapiens, UniProt P49327); assay: FAS thioesterase domain inhibitors, dose response, biochemical, endpoint fluorescence intensity, uHTS hits (AID 624327); assay type: functional;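 further: fluorescence from hydrolysis of an O-methyl fluorescein acyl ester substrate by the enzyme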
[7] = biological target: Neurotensin receptor type 1 (Homo sapiens, UniProt P30989); assay type: functional;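 further: Image-based confirmatory dose-response assay measuring agonist activity at NTR1; NTR1-expressing U2OS osteosarcoma cells imaged for beta-arrestin GFP spot formation; agonist potency where compounds increase beta-arrestin recruitment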
Fatty acid synthase [8] = biological target: T3, Fatty acid synthase; assay: FAS thioesterase domain inhibitors, dose response, biochemical, kinetic fluorescence intensity (AID 624326); assay type: functional;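 further: rate of fluorescence rise from hydrolysis of a fluorogenic O-methyl fluorescein ester substrate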
[9] = biological target: ATP-binding cassette sub-family B member 6 (Homo sapiens, UniProt Q9NP58); assay: ABCB6 transporter inhibitors, dose response, K562-ABCB6 cells, flow cytometry, cherry pick 1 (AID 623955); assay type: functional; conditions: read-out: EC50_MICROM
[10] = cytotoxicity in OV-90 ovarian cancer cells, dose response, PAX8 inhibitor project, cell-based, plate reader, dry powder, SA8 (AID 743149); assay type: functional
[11] = Shn3 3'UTR reporter inhibitors, dose response, cell-based, Clone20 osteoblasts, firefly luciferase, cherry-picked (AID 624132); assay type: functional;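 further: firefly luciferase luminescence from reporter carrying the Shn3 3'UTR in osteoblasts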
[12] = NIH:OVCAR-3 ovarian cancer cell cytotoxicity, dose response, PAX8 inhibitor project, plate reader, dry powder samples (AID 743044); assay type: functional, cell-based
HEK293 [13] = assay: cells; assay type: functional, cell-based; conditions: Homo sapiens
[14] = biological target: Heat shock protein HSP 90-alpha (Homo sapiens, UniProt P07900); assay type: functional, organism-based
[15] = inhibitors of SNCA 5'UTR-driven reporter translation, confirmation, H4 neuroglioma cells, luminescence (AID 1988); assay type: functional, cell-based
[16] = biological target: Nucleotide-binding oligomerization domain-containing protein 2 (Homo sapiens, UniProt Q9HC29); assay: NOD2 signaling inhibitors, cell-based, luminescence, uHTS, HEK293 (AID 1566); assay type: functional
[17] = cytotoxicity in COV434 cells, dose response, cytotoxicity control for PAX8 inhibitor project, cell-based, plate reader, dry powder, SA7 (AID 743145); assay type: functional
[18] = cytotoxicity dependent on PAX8, dose response, cell-based, plate reader, dry powder (AID 743049); assay type: functional
[19] = HepG2 cell cytotoxicity, dose response, cytotoxicity control for Shn3 inhibitor project, CellTiter-Glo, cherry-picked (AID 624134); assay type: functional, cell-based
[20] = cytotoxicity in COV362 ovarian cancer cells, dose response, cytotoxicity control for PAX8 inhibitor project, cell-based, plate reader, dry powder, SA12 (AID 743144); assay type: functional
[21] = inhibitors of firefly luciferase expression or activity, dose response, H4 neuroglioma cells, luminescence (AID 1990); assay type: functional, cell-based
[22] = PAX2 cell-based inhibition, dose response, selectivity assay for PAX8 inhibitor project, plate reader, dry powder samples (AID 743048); assay type: functional;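 further: HEK293 cells carrying a WT1 promoter luciferase reporter driven by expressed Pax2; potency is for inhibition of Pax2 driven reporter signal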
[23] = control 3'UTR Renilla luciferase suppression, dose response, counter-screen for Shn3 inhibitor project, cell-based, Clone20-Shn3RL, cherry-picked (AID 624133); assay type: functional
Beta Lactamase = Beta Lactamase (Pseudomonas aeruginosa, UniProt Q932Y6); assay: beta-lactamase reporter inhibitor potency, dose response, artefact control for TLR9-MyD88 binding inhibitor project, BLA reporter cells, FRET fluorescence (AID 588341); assay type: cell-based;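 further: cell based assay in CHO-K1 cells stably expressing beta-lactamase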
Escherichia coli = assay: microbe, parasite or virus in culture
[24] = cytotoxicity in OVCAR4 cells, dose response, cytotoxicity control for PAX8 inhibitor project, cell-based, plate reader, dry powder, SA11 (AID 743150); assay type: functional; conditions: OVCAR-4
[25] = IGROV1 ovarian cancer cell cytotoxicity, dose response, PAX8 inhibitor project, plate reader, dry powder samples (AID 743043); assay type: functional, cell-based; conditions: IGROV-1
HEK293 [26] = assay: NOD2 signaling inhibitors in MDP-stimulated cells, cell-based, uHTS, luminescence (AID 2001); assay type: functional; conditions: Homo sapiens
[27] = A2780 ovarian cancer cell cytotoxicity, dose response, cytotoxicity control, plate reader, dry powder samples (AID 743046); assay type: functional, cell-based
CHO = assay: cytotoxicity in TLR9-MyD88 CHO cells, dose response, cytotoxicity control for TLR9-MyD88 binding inhibitor project, cell-based, luminescence (AID 588339); assay type: functional, hamster; conditions: Cricetulus griseus;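 further: CHO cells stably coexpressing TLR9 and MyD88 fusions from primary screen; compound exposure lasted 48 hours before viability readout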
[28] = Luminescence Cell-Based Dose Response HTS to Identify Inhibitors of 5'UTR Stem-Loop Driven Prion Protein mRNA Translation in H4 Neuroglioblastoma Cells. [Related pubchem assays: 1827 (Project Summary), 1813 (Primary HTS)]; assay type: functional
HEK293 [29] = assay: NOD1 signaling inhibitors, primary screen, cell-based, luminescence, uHTS (AID 1578); assay type: functional; conditions: Homo sapiens
Paired box protein Pax-8 = Paired box protein Pax-8 (Homo sapiens, UniProt Q06710); assay: inhibitors of PAX8-driven TPO luciferase reporter, dose response, RMG-I cells, cherry-pick (AID 687027); assay type: functional, cell-based;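 further: luciferase reporter driven by Pax8 target thyroperoxidase promoter measured by SteadyGlo luminescence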
HEK293 [30] = assay: cells; assay type: functional, cell-based; conditions: Homo sapiens; remark: listed apart in the source
[31] = biological target: T4, Replicative DNA helicase DnaB (Mycobacterium tuberculosis, UniProt P9WMR3); assay: DnaB intein splicing inhibitors, dose response, biochemical, cell-free fluorescence (AID 449749); assay type: functional
T4 sequence (P9WMR3 whole entry): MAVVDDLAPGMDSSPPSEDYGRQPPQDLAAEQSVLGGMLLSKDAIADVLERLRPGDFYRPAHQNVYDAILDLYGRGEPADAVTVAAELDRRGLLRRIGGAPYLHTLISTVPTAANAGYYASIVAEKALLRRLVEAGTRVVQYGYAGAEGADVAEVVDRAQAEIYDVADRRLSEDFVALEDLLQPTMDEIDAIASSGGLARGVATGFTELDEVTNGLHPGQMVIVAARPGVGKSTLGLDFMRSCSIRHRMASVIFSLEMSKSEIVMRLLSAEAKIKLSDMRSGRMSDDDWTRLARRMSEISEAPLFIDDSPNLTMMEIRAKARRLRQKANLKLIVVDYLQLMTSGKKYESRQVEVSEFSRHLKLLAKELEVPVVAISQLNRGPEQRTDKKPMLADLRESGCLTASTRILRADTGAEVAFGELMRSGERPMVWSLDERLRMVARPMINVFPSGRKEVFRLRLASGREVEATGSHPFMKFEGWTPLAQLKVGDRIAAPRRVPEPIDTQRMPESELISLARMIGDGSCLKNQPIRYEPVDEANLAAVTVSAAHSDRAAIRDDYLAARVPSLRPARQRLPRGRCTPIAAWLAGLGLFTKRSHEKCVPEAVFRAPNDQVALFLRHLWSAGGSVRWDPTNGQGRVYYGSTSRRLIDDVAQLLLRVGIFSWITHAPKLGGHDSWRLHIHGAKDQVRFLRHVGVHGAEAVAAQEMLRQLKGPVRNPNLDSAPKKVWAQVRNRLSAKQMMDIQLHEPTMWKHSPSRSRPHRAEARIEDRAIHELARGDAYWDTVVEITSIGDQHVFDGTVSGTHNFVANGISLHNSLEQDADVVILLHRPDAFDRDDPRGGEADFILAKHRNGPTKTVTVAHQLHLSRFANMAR

Protein RecA = biological target: T5, Protein RecA (Mycobacterium tuberculosis, UniProt P9WHJ3); assay: Fluorescence Cell-Free Homogeneous Dose Retest to Identify Inhibitors of RecA-Intein Splicing Activity. [Related pubchem assays (depositor defined):AID2097, AID2223, AID489010, AID492950]; assay type: functional
T5 sequence (P9WHJ3 whole entry): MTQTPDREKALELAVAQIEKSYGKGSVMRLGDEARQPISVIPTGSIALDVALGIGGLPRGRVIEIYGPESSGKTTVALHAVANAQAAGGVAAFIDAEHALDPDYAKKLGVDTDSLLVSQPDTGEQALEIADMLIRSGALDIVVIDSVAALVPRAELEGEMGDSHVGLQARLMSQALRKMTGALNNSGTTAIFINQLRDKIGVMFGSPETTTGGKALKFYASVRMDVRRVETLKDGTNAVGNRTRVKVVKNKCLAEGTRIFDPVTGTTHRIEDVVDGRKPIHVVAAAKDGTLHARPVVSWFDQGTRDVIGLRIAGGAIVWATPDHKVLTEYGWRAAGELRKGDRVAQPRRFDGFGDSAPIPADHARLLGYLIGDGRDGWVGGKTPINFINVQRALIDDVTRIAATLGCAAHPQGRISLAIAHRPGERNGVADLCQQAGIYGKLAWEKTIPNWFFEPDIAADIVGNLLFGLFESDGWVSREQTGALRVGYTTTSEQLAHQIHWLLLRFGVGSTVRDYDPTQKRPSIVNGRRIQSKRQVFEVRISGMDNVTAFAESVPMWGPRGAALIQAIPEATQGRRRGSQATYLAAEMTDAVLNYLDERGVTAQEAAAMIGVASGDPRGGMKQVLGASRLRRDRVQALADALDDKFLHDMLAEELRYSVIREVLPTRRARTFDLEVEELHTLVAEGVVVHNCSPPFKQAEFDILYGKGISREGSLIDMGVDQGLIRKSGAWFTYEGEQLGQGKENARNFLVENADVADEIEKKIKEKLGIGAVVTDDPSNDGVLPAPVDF

[32] = PAX5 activity inhibitors, dose response, selectivity assay for PAX8 inhibitor project, cell-based, plate reader, dry powder samples (AID 743047); assay type: functional;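 further: HEK293 cells carrying a Pax5 driven CD19 promoter luciferase reporter; potency of inhibitors that lower reporter luminescence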
[33] = IOSE-T80 ovarian epithelial cell cytotoxicity, dose response, cytotoxicity control for PAX8 inhibitor project, plate reader, dry powder samples (AID 743045); assay type: functional, cell-based
INS1 = assay: protection from cytokine-driven beta-cell apoptosis, dose response, JC-1 fluorescence, INS-1E, dry powder, set 2 (AID 488867); assay type: functional, cell-based; conditions: Rattus norvegicus
[34] = inhibitors of cytokine-induced nitrite release, dose response, cell-based, Griess absorbance, INS-1E, dry powder, set 3 (AID 488870); assay type: functional; conditions: Rattus norvegicus

T3 sequence (P49327 whole entry, the tested form may be a part): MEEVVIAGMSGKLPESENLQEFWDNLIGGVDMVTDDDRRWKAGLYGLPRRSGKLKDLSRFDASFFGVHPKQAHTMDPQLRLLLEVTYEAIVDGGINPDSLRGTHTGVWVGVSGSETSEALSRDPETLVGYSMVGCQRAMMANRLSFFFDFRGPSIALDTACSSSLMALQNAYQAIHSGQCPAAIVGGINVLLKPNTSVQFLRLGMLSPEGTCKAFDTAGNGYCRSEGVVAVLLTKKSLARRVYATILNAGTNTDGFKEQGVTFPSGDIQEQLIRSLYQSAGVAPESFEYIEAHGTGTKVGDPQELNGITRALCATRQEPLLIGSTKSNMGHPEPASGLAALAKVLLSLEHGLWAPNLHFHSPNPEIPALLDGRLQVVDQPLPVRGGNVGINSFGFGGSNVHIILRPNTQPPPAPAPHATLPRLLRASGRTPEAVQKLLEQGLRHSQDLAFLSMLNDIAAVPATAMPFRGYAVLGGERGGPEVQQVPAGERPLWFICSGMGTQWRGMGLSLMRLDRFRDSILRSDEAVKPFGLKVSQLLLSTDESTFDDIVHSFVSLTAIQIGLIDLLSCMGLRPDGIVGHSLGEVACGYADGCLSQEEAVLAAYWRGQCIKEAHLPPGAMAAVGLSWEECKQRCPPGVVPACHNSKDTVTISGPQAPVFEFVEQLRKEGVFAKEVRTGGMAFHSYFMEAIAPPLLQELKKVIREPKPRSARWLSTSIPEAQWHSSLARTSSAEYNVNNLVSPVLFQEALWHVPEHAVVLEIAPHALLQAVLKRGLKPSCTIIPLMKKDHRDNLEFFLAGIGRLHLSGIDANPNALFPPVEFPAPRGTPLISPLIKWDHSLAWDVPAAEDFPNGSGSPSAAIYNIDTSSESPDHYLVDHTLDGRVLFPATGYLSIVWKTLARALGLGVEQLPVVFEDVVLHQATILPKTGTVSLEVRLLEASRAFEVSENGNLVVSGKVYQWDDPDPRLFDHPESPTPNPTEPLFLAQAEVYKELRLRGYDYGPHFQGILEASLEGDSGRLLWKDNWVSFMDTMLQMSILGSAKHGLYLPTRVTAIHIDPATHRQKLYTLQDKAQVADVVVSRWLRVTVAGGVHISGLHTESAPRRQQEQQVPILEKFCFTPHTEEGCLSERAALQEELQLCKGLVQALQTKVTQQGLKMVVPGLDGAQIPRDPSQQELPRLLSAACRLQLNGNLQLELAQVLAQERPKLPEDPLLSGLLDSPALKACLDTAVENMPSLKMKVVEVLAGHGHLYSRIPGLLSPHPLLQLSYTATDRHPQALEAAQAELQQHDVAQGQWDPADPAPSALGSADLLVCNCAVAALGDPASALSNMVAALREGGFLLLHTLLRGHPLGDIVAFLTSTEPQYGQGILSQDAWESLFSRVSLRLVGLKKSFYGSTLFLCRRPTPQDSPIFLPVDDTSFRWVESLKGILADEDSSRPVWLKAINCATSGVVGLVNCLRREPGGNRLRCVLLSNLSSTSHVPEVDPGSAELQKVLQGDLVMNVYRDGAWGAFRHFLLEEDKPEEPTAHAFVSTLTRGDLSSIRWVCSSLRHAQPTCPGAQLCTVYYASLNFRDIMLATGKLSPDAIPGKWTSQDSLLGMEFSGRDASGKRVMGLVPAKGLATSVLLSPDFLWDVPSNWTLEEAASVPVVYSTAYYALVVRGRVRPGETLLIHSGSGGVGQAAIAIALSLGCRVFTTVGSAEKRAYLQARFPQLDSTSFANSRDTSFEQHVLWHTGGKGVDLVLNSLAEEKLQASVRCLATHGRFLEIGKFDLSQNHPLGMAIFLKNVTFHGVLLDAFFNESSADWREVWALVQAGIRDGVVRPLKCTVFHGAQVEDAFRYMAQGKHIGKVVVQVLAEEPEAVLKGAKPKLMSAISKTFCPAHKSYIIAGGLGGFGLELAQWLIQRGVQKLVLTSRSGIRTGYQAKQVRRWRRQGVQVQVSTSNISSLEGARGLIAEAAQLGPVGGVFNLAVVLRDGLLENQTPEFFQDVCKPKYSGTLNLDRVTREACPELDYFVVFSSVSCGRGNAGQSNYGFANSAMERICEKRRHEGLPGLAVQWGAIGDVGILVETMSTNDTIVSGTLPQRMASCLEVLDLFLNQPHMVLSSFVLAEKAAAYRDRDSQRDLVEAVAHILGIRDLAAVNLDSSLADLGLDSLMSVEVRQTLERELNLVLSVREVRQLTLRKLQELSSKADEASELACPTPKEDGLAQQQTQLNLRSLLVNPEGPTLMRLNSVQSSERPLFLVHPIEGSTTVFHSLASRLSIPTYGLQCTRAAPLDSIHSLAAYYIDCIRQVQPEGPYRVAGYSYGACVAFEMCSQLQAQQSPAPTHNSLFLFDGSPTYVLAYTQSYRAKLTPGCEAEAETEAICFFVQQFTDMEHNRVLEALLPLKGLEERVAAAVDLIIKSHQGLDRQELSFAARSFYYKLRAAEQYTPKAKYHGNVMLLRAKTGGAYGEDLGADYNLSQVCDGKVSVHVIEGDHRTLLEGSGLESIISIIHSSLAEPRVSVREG
T2 sequence (P0AE70 whole entry): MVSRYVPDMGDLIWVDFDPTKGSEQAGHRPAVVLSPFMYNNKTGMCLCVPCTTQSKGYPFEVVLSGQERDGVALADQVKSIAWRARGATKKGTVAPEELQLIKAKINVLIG
Chain of Paired box protein Pax-8 (Q06710 whole entry): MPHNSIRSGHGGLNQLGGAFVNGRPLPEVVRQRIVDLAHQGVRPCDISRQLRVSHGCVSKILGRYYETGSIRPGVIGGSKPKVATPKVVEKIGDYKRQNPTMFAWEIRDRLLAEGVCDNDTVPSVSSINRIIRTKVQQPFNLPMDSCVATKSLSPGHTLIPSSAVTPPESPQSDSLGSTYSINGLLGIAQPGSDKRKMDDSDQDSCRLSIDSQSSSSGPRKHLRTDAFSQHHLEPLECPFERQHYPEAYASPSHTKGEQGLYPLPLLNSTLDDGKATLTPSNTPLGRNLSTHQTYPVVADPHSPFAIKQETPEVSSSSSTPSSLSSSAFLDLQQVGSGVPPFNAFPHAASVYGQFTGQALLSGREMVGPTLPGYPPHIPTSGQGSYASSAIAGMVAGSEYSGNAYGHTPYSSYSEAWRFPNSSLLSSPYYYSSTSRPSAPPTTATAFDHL
Chain of Nucleotide-binding oligomerization domain-containing protein 2 (Q9HC29 whole entry, the tested form may be a part): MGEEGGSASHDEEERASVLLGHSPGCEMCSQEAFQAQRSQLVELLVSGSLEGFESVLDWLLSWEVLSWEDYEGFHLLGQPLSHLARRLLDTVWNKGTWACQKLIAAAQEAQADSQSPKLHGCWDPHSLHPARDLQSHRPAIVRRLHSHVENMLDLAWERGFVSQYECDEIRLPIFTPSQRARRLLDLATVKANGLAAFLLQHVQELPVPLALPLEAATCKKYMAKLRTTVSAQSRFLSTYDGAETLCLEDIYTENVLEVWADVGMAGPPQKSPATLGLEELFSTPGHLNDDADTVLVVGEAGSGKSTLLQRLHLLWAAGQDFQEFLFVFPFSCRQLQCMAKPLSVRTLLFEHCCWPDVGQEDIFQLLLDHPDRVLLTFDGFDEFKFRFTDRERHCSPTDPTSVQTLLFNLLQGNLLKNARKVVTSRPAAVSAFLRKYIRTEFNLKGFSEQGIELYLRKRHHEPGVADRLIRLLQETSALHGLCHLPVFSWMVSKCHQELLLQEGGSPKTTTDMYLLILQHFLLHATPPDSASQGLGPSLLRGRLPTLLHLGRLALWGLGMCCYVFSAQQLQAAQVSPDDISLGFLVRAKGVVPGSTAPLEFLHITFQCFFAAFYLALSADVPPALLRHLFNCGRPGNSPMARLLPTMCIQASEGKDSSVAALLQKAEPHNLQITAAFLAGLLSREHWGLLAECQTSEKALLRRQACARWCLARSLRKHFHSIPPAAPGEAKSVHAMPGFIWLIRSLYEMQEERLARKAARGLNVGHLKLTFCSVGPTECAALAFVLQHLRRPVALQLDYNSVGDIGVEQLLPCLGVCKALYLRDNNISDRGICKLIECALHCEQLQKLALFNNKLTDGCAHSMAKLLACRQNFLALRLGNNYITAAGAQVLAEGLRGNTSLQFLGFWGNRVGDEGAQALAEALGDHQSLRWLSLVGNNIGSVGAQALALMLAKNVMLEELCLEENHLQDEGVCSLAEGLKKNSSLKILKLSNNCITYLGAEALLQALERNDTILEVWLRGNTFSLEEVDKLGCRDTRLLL
Chain of Neurotensin receptor type 1 (P30989 whole entry, the tested form may be a part): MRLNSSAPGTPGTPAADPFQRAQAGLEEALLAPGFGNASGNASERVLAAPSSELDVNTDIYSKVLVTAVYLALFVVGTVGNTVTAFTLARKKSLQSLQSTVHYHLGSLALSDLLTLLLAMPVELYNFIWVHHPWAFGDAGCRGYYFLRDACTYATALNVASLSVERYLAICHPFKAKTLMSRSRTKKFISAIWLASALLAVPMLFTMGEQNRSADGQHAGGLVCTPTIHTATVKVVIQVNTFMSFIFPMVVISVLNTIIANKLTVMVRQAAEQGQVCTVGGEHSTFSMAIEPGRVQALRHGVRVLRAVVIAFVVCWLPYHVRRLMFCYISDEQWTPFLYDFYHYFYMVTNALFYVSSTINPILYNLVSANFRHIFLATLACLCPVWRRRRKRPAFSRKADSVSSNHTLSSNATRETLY
Chain of Beta Lactamase (Q932Y6 whole entry): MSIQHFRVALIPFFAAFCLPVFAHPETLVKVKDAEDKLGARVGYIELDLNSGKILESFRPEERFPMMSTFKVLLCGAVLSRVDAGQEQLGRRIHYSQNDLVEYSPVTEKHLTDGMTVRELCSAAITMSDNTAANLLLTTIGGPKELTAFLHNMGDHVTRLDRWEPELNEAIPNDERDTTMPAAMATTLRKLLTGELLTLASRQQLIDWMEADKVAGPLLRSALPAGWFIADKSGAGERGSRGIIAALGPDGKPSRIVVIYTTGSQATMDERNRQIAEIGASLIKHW

O=[N+]([O-])c1ccc(-c2nc(Nc3cccc(O)c3)c3ccccc3n2)cc1
EC50 (Streptokinase A): > 150 µM (not active)
EC50 [1]: 11.4 µM (active)
EC50 [2]: > 99 µM (inactive)
EC50 [3]: > 99 µM (inactive)
EC50 (Streptococcus): 8.36 µM (active)
AC50 [4]: 3.24 µM (active)
CC50 [5]: 22 µM (active)
IC50 (Fatty acid synthase [6]): 12.9 µM (active)
EC50 [7]: 15.3 µM (active)
IC50 (Fatty acid synthase [8]): 13.2 µM (active)

Cc1cccc(CS(=O)(=O)c2ncc(Cl)c(C(=O)Nc3ccc(F)cc3)n2)c1
EC50 [9]: 80.4 µM (active)
AC50 [10]: 8.4 µM (active)
AC50 [11]: 0.55 µM (active)
AC50 [12]: 7.88 µM (active)
IC50 (HEK293 [13]): > 20 µM (inactive)
AC50 [14]: 1.73 µM (active)
EC50 [15]: 12.4 µM (active)
EC50 [16]: > 20 µM (inactive)
AC50 [17]: 4.11 µM (active)
AC50 [18]: 12.7 µM (active)
AC50 [19]: 29.2 µM (active)
AC50 [20]: 7.95 µM (active)
EC50 [21]: 12.2 µM (active)
AC50 [22]: 14.8 µM (active)
AC50 [23]: 6.54 µM (active)
IC50 (Beta Lactamase): 9.48 µM (active)
AC50 (Escherichia coli): 25.5 µM (active)
AC50 [24]: 10.5 µM (active)
AC50 [25]: 9.96 µM (active)
IC50 (HEK293 [26]): 10.8 µM (inactive)
AC50 [27]: 23.8 µM (active)
IC50 (CHO): 2.72 µM (active)
EC50 [28]: 22 µM (active)
EC50 (HEK293 [29]): 8.42 µM (active)
IC50 (Fatty acid synthase [6]): 9.64 µM (active)
AC50 (Paired box protein Pax-8): 9.28 µM (active)
IC50 (HEK293 [30]): > 20 µM (inactive)
IC50 (Fatty acid synthase [8]): 19.4 µM (active)
AC50 [31]: 3.25 µM (active)
EC50 (Protein RecA): 2.19 µM (active)
AC50 [32]: 31.4 µM (active)
AC50 [33]: 10.5 µM (active)

C[C@@H]1CN([C@@H](C)CO)C(=O)c2cccc(NC(=O)Nc3cccc4ccccc34)c2O[C@H]1CN(C)S(=O)(=O)c1ccc2c(c1)OCCCO2
AC50 (INS1): 253 µM (active)
AC50 [34]: 32.2 µM (active)
